Test results as given in US4673665A, “Process for treating anestrus in ewes or beef cattle” (Hoechst Aktiengesellschaft, priority 1982, dated 1987).

Assays:
monkey = conditions: continuous intravenous injection of LH-RH; cited from earlier work
female mature ewes = assay: Example 1: progesterone implant pretreatment, then constant LH-RH infusion in ewes; mating, ovulation (laparoscopy), pregnancy; assay type: in vivo, sheep (Clun Forest, Welsh Halfbred); conditions: for number of ovulations: laparoscopy
Description: Implants containing progesterone were administered subcutaneously to 28 female mature ewes of two different breeds ("Clun Forest" and "Welsh Halfbred") for a period of 14 days. 12 Ewes were infused constantly with 125 to 250 ng of LH-RH per hour over a period of 48 hours 2 hours before withdrawing the implants. Four ewes treated with a saline solution served as a control. The sheep were examined by laparoscopy to test them for ovulation, moreover blood samples were taken to determine the progesterone level. 24 hours after starting the infusions, onset of estrus was observed using fertile rams at 4 hourly intervals and the ewes in estrus were mated.

sheep [1] = conditions: 14-day s.c. progesterone implant, then 250 ng LH-RH at 2 hourly intervals for 48 hours, cited from earlier work
beef cows [2] = assay: Example 3: PRID progesterone device for 8 days, then constant LH-RH infusion in post-partum beef cows; ovulation; assay type: in vivo, beef cattle; conditions: PRID for 8 days, then LH-RH constant infusion 2.5 μg/2 h; 5 beef cows
Description: 5 Beef cows were treated in the early post-partum period over a period of 8 days by inserting in them an intravaginal device (PRID® of the firm Abbott) containing progesterone. Following withdrawal of the device a LH-RH constant infusion in doses of 2.5 μg/2 h was carried out in the manner described in Example 2. Ovulation occurred during the treatment in all cows, said ovulation being characterized by an increase in the progesterone plasma level.

sheep [3] = conditions: i.v. injections of 250, 500 and 1,000 ng LH-RH at 2 hourly intervals over 8 days, no gestagen pretreatment; cited from earlier work
beef cows [4] = assay: Example 2: LH-RH injections at 2 hourly intervals or constant infusion in early post-partum beef cows; progesterone and LH level; assay type: in vivo, beef cattle; conditions: for No. showing progesterone rise: 2 to 4 days
Description: 17 Beef cows were injected with 1.0, 2.5 and 5.0 μg of LH-RH, respectively, in the early post-partum period during 2 to 4 days at 2 hourly intervals, while 21 beef cows were given a constant infusion of identical dosage per unit of time during the same period of time.
Blood samples were taken prior to and during the treatments to determine the LH level. Blood samples for determining the progesterone level were taken during a prolonged period of time after the treatment.

[5] = 125 ng of LH-RH/h constant infusion for 48 h after 14-day progesterone implant
[6] = 250 ng LH-RH/h constant infusion for 48 h after 14-day progesterone implant

LH-RH: LH/FSH-releasing hormone, provokes release of LH and FSH from the pituitary gland
pulsed LH release followed by induction of menstrual cycle and ovulation (monkey): failed | rate of ovulations (female mature ewes; [5]): 1.4 | number of ovulations (female mature ewes; [5]): 9 | number of mated sheep (female mature ewes; 125 ng of LH-RH/h constant infusion for 48 h after 14-day s.c. progesterone implant): 10 | rate of ovulations (female mature ewes; [6]): 1.5 | number of ovulations (female mature ewes; [6]): 12 | number of mated sheep (female mature ewes; 250 ng LH-RH/h constant infusion for 48 h after 14-day s.c. progesterone implant): 11 | pregnancy rate (female mature ewes; ewes treated with LH-RH after progesterone implant and mated): 75% | number of bred sheep that became pregnant (sheep [1]; 5 bred sheep): 3 | estrus and ovulation (sheep [1]; 5 sheep): induced | cows in which ovulation occurred during the treatment (increase in progesterone plasma level) (beef cows [2]): all cows | induction of estrus (sheep [3]): could not be induced | plasma LH concentrations during treatment phase compared to pretreatment phase (beef cows [4]; all test animals, irrespective of mode of administration and dose (1.0, 2.5, 5.0 μg)): distinct increase | No. showing progesterone rise (beef cows [4]; constant infusion 1.0 μg/2 h, total 6 + 3 cows): 2 | number of animals that responded (progesterone rise) (beef cows [4]; constant infusion 1.0 μg/2 h, the 3 cows with calvings in summer): 2 | response (progesterone rise) (beef cows [4]; constant infusion 1.0 μg/2 h, the 6 cows treated after spring calvings): did not respond | No. showing progesterone rise (beef cows [4]; constant infusion 2.5 μg/2 h, total 6 cows): 4 | No. showing progesterone rise (beef cows [4]; constant infusion 5.0 μg/2 h, total 6 cows): 4 | No. showing progesterone rise (beef cows [4]; injections at 2 hourly intervals, 1.0 μg, total 6 cows): 4 | No. showing progesterone rise (beef cows [4]; injections at 2 hourly intervals, 2.5 μg, total 6 cows): 4 | No. showing progesterone rise (beef cows [4]; injections at 2 hourly intervals, 5.0 μg, total 5 cows): 4
